ChEMBL document CHEMBL3091331, “Aminothiazole-featured pirinixic acid derivatives as dual 5-lipoxygenase and microsomal prostaglandin E2 synthase-1 inhibitors with improved potency and efficiency in vivo” (J Med Chem, 2013)
Active and inactive are the calls of the source. No cut-off for these calls is given here.

Columns and labels:
Mus musculus [1] = test: Antiinflammatory activity in CD-1 mouse peritonitis model assessed as reduction in vascular permeability at 10 mg/kg, ip administered 30 mins prior to zymosan-challenge measured after 4 hrs relative to vehicle-treated control; type: functional; settings: CD-1, ip, route intraperitoneal
Mus musculus [2] = test: Reduction of 6-keto […] formation in CD-1 mouse peritonitis model at 10 mg/kg, ip administered 30 mins prior to zymosan-challenge measured after 4 hrs by EIA (reference value: 3.89 +/- 0.58 ng/ml); type: functional, organism-based; parameters: dose 10 mg/kg
Mus musculus [3] = test: Reduction of PGE2 biosynthesis in CD-1 mouse peritonitis model at 10 mg/kg, ip administered 30 mins prior to zymosan-challenge measured after 4 hrs by RIA relative to vehicle-treated control; type: functional; settings: CD-1, ip, route intraperitoneal
[4] = molecular target: MAP kinase p38 (Homo sapiens) (UniProt O15264+Q15759+Q16539+P53778); test: Inhibition of fMLP-mediated p38 MAPK phosphorylation in human polymorphonuclear leukocytes incubated for 15 mins prior to fMLP-challenge measured after 1.5 mins by SDS-PAGE analysis; type: cell-based
[5] = molecular target: Mitogen-activated protein kinase 1 (Homo sapiens) (UniProt P28482); test: Inhibition of fMLP-mediated ERK2 phosphorylation in human polymorphonuclear leukocytes incubated for 15 mins prior to fMLP-challenge measured after 1.5 mins by SDS-PAGE analysis; type: cell-based
[6] = tested on: Radical scavenging activity; test: Antioxidant activity assessed as DPPH radical scavenging activity at 10 uM after 30 mins; type: functional
[7] = molecular target: T1, Polyunsaturated fatty acid lipoxygenase ALOX15 (Homo sapiens) (UniProt P16050); test: Inhibition of 15-lipoxygenase in human polymorphonuclear leukocytes using arachidonic acid as substrate assessed as remaining activity at 10 uM incubated 15 mins prior to substrate addition measured after 10 mins by HPLC analysis relative to control; type: cell-based
T1 sequence (whole entry): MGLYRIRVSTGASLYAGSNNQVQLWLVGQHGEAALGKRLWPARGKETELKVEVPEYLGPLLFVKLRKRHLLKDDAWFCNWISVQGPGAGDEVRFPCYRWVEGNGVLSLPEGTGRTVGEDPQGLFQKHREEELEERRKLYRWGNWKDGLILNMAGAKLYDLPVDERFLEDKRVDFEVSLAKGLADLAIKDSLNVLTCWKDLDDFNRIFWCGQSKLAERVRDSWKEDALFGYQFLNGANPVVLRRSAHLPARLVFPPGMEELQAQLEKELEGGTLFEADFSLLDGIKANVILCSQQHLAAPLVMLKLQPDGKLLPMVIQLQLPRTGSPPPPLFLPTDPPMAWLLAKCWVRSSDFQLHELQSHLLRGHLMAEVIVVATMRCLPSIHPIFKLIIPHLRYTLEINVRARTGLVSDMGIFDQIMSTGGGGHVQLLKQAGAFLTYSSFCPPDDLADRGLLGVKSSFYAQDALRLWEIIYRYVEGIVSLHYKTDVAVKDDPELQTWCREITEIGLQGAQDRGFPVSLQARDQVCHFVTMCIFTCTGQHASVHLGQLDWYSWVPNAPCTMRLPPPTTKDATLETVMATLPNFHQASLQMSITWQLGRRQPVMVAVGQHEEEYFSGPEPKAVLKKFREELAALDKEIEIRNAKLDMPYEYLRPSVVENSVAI

[8] = molecular target: T2, Polyunsaturated fatty acid lipoxygenase ALOX12 (Homo sapiens) (UniProt P18054); test: Inhibition of 12-lipoxygenase in human polymorphonuclear leukocytes using arachidonic acid as substrate assessed as remaining activity at 10 uM incubated 15 mins prior to substrate addition measured after 10 mins by HPLC analysis relative to control; type: cell-based
T2 sequence (whole entry): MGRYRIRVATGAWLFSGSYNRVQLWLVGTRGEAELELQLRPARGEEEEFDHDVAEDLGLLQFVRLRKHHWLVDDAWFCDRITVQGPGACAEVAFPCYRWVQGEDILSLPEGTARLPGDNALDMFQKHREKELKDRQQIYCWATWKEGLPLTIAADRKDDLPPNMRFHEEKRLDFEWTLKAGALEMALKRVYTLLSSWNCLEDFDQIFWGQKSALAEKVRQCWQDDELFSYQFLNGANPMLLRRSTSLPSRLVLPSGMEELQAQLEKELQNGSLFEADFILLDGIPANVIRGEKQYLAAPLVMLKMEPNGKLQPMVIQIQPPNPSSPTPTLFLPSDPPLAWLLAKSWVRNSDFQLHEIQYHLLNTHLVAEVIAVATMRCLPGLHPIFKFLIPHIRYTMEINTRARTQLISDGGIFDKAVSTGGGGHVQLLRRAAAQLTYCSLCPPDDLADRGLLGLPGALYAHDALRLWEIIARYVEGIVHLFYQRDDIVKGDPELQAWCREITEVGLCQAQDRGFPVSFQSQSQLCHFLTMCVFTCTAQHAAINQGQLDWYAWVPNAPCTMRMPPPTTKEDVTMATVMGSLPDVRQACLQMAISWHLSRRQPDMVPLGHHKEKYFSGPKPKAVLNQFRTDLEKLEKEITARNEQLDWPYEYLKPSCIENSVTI

Prostaglandin E synthase = molecular target: T3, Prostaglandin E synthase (Homo sapiens, UniProt O14684); test: Inhibition of mPGES-1 from human A549 cell microsomal membranes using PGH2 as substrate incubated 15 mins prior to substrate addition measured after 1 min by RP-HPLC analysis
T3 sequence (O14684 whole entry): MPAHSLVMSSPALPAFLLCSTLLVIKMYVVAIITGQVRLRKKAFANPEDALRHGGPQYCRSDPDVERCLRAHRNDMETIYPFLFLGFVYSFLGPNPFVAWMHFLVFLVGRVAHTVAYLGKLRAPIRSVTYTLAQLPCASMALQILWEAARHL

[9] = Cytotoxicity against human polymorphonuclear leukocytes at 10 uM after 1 hr by light microscopic analysis

Chain of Mitogen-activated protein kinase 1 (Homo sapiens) (P28482 whole entry): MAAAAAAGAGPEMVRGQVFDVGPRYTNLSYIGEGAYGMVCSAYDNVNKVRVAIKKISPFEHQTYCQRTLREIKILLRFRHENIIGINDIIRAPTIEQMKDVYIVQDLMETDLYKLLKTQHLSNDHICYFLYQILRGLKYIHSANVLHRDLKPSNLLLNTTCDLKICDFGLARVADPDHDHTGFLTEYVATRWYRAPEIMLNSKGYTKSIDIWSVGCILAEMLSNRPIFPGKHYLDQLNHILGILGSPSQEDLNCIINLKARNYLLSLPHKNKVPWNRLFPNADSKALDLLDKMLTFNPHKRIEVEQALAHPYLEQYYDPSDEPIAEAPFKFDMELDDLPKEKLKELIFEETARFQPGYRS

inhibition [4]: inactive
inhibition [5]: inactive
Activity [7]: 84%
Activity [8]: 168%
IC50 (Prostaglandin E synthase): 400 nM
Structure (SMILES): CCCCCCC(Sc1nc(Cl)cc(Nc2nc(-c3ccc4ccccc4c3)cs2)n1)C(=O)O (racemic)
inhibition in vivo at 10 mg/kg (Mus musculus [1]): 57%
inhibition (Mus musculus [2]): inactive
inhibition in vivo at 10 mg/kg (Mus musculus [3]): 46%
Activity [6]: inactive
Activity [9]: Non-toxic
